In brackets after ≈: the same amount, converted by molar mass. Marks after values point to notes of the source that are not given here.
Assays:
M121K = assay: MIC against M121K mutant; format: cell-based
TopoIV/gyrase = TopoIV/gyrase inhibition ratio; format: biochemical
hERG = hERG (Homo sapiens, UniProt Q12809); assay: hERG inhibition; format: cell-based
[1] = Mouse microsomal stability; format: in vitro ADME; details: microsomes, read-out: Mouse microsom. t1/2
[2] = Human microsomal stability; format: in vitro ADME; details: microsomes, read-out: Human microsom. t1/2
Rat microsomal stability = format: in vitro ADME; details: microsomes, read-out: Rat microsom. t1/2
Dog microsomal stability = format: in vitro ADME; details: microsomes, read-out: Dog microsom. t1/2
[3] = Monkey microsomal stability; format: in vitro ADME; details: microsomes, read-out: Monkey microsom. t1/2
S. aureus ATCC 29213 = format: cell-based; details: Using S. aureus ATCC 29213 and four additional strains of S. aureus
[4] = tested on: Staphylococcus epidermidis; assay: MIC50/90 against Staphylococcus epidermidis; format: cell-based; details: n = 10
Enterococcus spp. = assay: MIC50/90 against Enterococcus spp.; format: cell-based; details: n = 10 (147), n = 20 (others)
Streptococcus pneumoniae = assay: MIC50/90 against Streptococcus pneumoniae; format: cell-based
Streptococcus pyogenes = assay: MIC50/90 against Streptococcus pyogenes; format: cell-based
Streptococcus agalactiae = assay: MIC50/90 against Streptococcus agalactiae; format: cell-based
Haemophilus influenzae = assay: MIC50/90 against Haemophilus influenzae; format: cell-based; details: n = 10
Mycobacterium abscessus = assay: MIC50/90 against Mycobacterium abscessus; format: cell-based; details: Mycobacteroides abscessus; n = 10
Mycobacterium avium = assay: MIC50 against Mycobacterium avium; format: cell-based; details: n = 4
[5] = tested on: Mycobacterium chimaera intracellulare group; assay: MIC50 against Mycobacterium chimaera intracellulare group; format: cell-based; details: n = 6
Bacillus anthracis = assay: microbe, parasite or virus in culture; format: cell-based
Yersinia pestis = assay: microbe, parasite or virus in culture; format: cell-based
Burkholderia mallei = assay: microbe, parasite or virus in culture; format: cell-based
Neisseria gonorrhoeae = assay: MIC50/90 against Neisseria gonorrhoeae; format: cell-based
[6] = tested on: Pseudomonas aeruginosa 27853; assay: MIC against Pseudomonas aeruginosa 27853; format: cell-based
[7] = tested on: CYP 1A, 2B6, 2C8, 2C9, 2C19, 2D6, 3A; assay: CYP inhibition at 10 μM; format: in vitro ADME
S. aureus USA300 = assay: MIC against S. aureus USA300; format: cell-based; details: Staphylococcus aureus
S. aureus CF isolate = assay: MIC against S. aureus CF isolate; format: cell-based; details: Staphylococcus aureus
[8] = in vivo
[9] = not given; remark: listed apart in the source
[10] = not given; remark: listed apart in the source
[11] = not given; remark: listed apart in the source
[12] = not given; remark: listed apart in the source
[13] = all channels
in vivo = details: mouse, Mouse Vdss (L)
in vitro [14] = details: mouse, hepatocytes
in vitro [15] = details: human, hepatocytes
in vitro [16] = details: mouse, plasma
in vitro [17] = details: human, plasma
in vitro [18] = details: rat, plasma
physchem = details: pH 7.4, aqueous buffer, kinetic from dmso stock, Kinetic solubility at pH 7.4-7.5 (μM)
[19] = Neisseria gonorrhoeae, n = 17 (284, gepotidacin), n = 110 (147)
[20] = 284: as free base in immunocompetent mice, 147: no footnote
[21] = as mesylate salt in neutropenic mice

Chain of hERG (Q12809 whole entry): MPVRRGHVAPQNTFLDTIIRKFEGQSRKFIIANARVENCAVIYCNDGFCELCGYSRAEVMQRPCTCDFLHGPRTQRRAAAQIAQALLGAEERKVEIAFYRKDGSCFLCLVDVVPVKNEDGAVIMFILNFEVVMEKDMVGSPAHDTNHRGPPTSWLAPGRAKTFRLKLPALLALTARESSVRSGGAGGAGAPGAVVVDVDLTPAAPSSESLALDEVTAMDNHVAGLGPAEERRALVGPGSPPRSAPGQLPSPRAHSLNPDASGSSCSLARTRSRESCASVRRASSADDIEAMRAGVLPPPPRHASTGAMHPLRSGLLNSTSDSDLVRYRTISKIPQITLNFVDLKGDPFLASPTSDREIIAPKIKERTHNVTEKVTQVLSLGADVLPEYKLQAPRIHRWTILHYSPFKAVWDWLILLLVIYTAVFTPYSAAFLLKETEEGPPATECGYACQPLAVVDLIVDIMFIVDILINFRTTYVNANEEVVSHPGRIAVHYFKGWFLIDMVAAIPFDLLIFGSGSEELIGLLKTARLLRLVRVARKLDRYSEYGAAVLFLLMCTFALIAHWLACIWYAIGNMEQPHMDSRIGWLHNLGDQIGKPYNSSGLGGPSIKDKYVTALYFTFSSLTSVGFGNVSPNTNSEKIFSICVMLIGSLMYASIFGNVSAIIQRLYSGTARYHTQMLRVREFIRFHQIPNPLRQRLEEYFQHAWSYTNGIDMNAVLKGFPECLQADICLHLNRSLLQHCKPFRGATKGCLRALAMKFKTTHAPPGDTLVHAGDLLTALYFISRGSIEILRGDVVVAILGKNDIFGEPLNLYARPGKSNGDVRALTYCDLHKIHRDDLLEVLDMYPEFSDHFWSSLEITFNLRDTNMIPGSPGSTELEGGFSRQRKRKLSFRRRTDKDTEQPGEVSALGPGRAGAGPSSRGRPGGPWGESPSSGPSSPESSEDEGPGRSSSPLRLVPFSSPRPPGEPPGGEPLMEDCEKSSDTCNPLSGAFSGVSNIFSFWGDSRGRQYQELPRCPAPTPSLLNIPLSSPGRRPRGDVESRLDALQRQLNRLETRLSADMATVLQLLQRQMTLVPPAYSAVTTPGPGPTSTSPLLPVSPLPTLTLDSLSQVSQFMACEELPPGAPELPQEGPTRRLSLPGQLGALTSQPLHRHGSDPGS

`COc1ccc2ncc(F)c(C[C@H](O)[C@H]3OC[C@H](NCc4cnc5c(n4)NC(=O)CO5)CO3)c2n1` [Compound 284, 6-(((2-((S)-2-(3-fluoro-6-methoxy-1,5-naphthyridin-4-yl)-1-hydroxyethyl)-trans-1,3-dioxan-5-yl)amino)methyl)-2H-pyrazino[2,3-b][1,4]oxazin-3(4H)-one] gave an MIC (M121K) of 1 to 4 µg/mL (≈ 2.06 to 8.22 µM), a TopoIV/gyrase ratio (TopoIV/gyrase) of 0.28 and an IC50 (hERG) of 104 µM. For the same compound, the half-life [1] was over 2 h, the half-life [2] was over 2 h and the half-life (Rat microsomal stability) was over 2 h. The half-life (Dog microsomal stability) was over 2 h, the half-life [3] was over 2 h and the “Resistance freq. (at 8X MIC)” value (S. aureus ATCC 29213) was <9.62 × 10^−10**. The MIC50 [4] was 0.12 µg/mL (≈ 0.247 µM), the MIC90 [4] was 0.25 µg/mL (≈ 0.514 µM) and the MIC50 (Enterococcus spp.) was 1 µg/mL (≈ 2.06 µM). For the same compound, the MIC90 (Enterococcus spp.) was 2 µg/mL (≈ 4.11 µM), the MIC50 (Streptococcus pneumoniae; n = 5 (147), n = 10 (others)) was 0.5 µg/mL (≈ 1.03 µM) and the MIC90 (Streptococcus pneumoniae; n = 10) was 1 µg/mL (≈ 2.06 µM). The MIC50 (Streptococcus pyogenes; n = 5 (147), n = 10 (others)) was 0.5 µg/mL (≈ 1.03 µM), the MIC90 (Streptococcus pyogenes; n = 10) was 2 µg/mL (≈ 4.11 µM) and the MIC50 (Streptococcus agalactiae; Streptococcus agalactiae, n = 5 (147), n = 10 (others)) was 4 µg/mL (≈ 8.22 µM). For the same compound, the “Streptococcus agalactiae MIC90” value (Streptococcus agalactiae; n = 10) was 16 µg/mL, the MIC50 (Haemophilus influenzae) was 4 µg/mL (≈ 8.22 µM) and the MIC90 (Haemophilus influenzae) was 8 µg/mL (≈ 16.4 µM). For the same compound, the MIC50 (Mycobacterium abscessus) was over 64 µg/mL, the MIC90 (Mycobacterium abscessus) was over 64 µg/mL and the MIC50 (Mycobacterium avium) was 4 µg/mL (≈ 8.22 µM). For the same compound, the MIC50 [5] was 64 µg/mL (≈ 132 µM), the MIC50 (Bacillus anthracis; read-out: Bacillus anthracis MIC50 (μg/mL)) was 0.06 µg/mL (≈ 0.123 µM) and the MIC90 (Bacillus anthracis; read-out: Bacillus anthracis MIC90 (μg/mL)) was 0.25 µg/mL (≈ 0.514 µM). It also gave an MIC50 (Yersinia pestis; read-out: Yersinia pestis MIC50 (μg/mL)) of 2 µg/mL (≈ 4.11 µM), an MIC90 (Yersinia pestis; read-out: Yersinia pestis MIC90 (μg/mL)) of 8 µg/mL (≈ 16.4 µM) and an MIC90 (Burkholderia mallei; Burkholderia mallei, read-out: Burkholderia mallei MIC90 (μg/mL)) of over 64 µg/mL. For the same compound, the “Burkholderia mallei MIC50” value (Burkholderia mallei; n = 10) was 16 µg/mL, the MIC50 (Neisseria gonorrhoeae; Neisseria gonorrhoeae, n = 100) was 0.5 µg/mL (≈ 1.03 µM) and the MIC50 (Neisseria gonorrhoeae; [19]) was 1 µg/mL (≈ 2.06 µM). For the same compound, the MIC90 (Neisseria gonorrhoeae; [19]) was 2 µg/mL (≈ 4.11 µM), the “Neisseria gonorrhoeae MIC90” value (Neisseria gonorrhoeae; n = 100) was 2 µg/mL and the MIC [6] was 64 µg/mL (≈ 132 µM). The “CYP inhibition at 10 μM (1A, 2B6, 2C8, 2C9, 2C19, 2D6, 3A)” value [7] was “No issues”, the MIC (S. aureus USA300) was 0.125 to 0.25 µg/mL (≈ 0.257 to 0.514 µM) and the MIC (S. aureus CF isolate) was 0.125 to 0.25 µg/mL (≈ 0.257 to 0.514 µM). For the same compound, the “Mouse Vdss (L)” value [8] was 0.53*** L, the “Mouse plasma protein binding (% unbound)” value was 31 % unbound and the “Human plasma protein binding (% unbound)” value [9] was 10 % unbound. The “Rat plasma protein binding (% unbound)” value [10] was 4 % unbound, the “Kinetic solubility at pH 7.4-7.5 (μM)” value [11] was over 200 μM and the “Safety44 screen at 100 μM” value [12] was “None >50%”. For the same compound, the “Comprehensive in vitro proarrhythmia assay at 100 μM, inhibition” value [13] was “All <25%”, the Vd (in vivo) was 0.36 L and the half-life (in vitro [14]) was over 4 h. It also gave a half-life (in vitro [15]) of over 4 h, a half-life (in vitro [16]) of over 2 h and a half-life (in vitro [17]) of over 2 h. The half-life (in vitro [18]) was over 2 h, the solubility kinetic (physchem) was 118 µM (≈ 57.2 µg/mL) and the “Mouse PK AUClast, unbound (μg*h/mL) after 50 mg/kg oral dose” value (Mouse pharmacokinetics; [20]) was 5** μg*h/mL. For the same compound, the “Mouse PK AUClast, unbound (μg*h/mL) after 50 mg/kg oral dose” value (Mouse pharmacokinetics; [21]) was 12*** μg*h/mL, the “Mouse Clunbound (mL/min/kg)” value (Mouse pharmacokinetics; [20]) was 15*** mL/min/kg and the “Mouse Clunbound (mL/min/kg)” value (Mouse pharmacokinetics; [21]) was 45**** mL/min/kg.

Reference: patent US20260226077A1, “TYPE II TOPOISOMERASE INHIBITORS AND METHODS OF MAKING AND USING THEREOF” (Ohio State Innovation Foundation, priority 2023, published 2026)
